Measured values reported in patent US12415794B2 (Edgewise Therapeutics, Inc., priority 2018, dated 2025).
pIC50: −log10 of the molar value.

Legend:
[1] = target: T1, cardiac myofibrils (myosin ATPase); test: Cardiac Myofibril ATPase Assay (counter screen); format: biochemical; conditions: myofibrils 1.0 mg/mL, KCl omitted, Table 5A
T1 construct: frozen myofibril pellets obtained from cardiac tissue; from tissue
Method: (§1) Overview: Myosin ATPase activity is assessed by using a coupled reaction system, in which ADP generated by the myosin ATPase function is coupled to the disappearance of NADH through the pyruvate kinase/lactate dehydrogenase (PK-LDH) system. ATPase activity produces ADP, which is used as a substrate for PK to produce pyruvate and regenerate ATP. The pyruvate is then used as a substrate by LDH to oxidize NADH to NAD+. The rate of the reaction is monitored through the time-dependent disappearance of NADH using absorbance at 340 nm. Inhibition of ATPase activity by the assayed compounds is indicated by a reduced rate of NADH loss, relative to vehicle-treated controls, over the experimental time window. To assess the selectivity of the assayed compounds for skeletal myofibrils, the compounds are counter-screened in cardiac myofibrils.
Example 13: Cardiac Myofibril ATPase Assay
Following example 11, the counter screen was done using frozen myofibril pellets obtained from cardiac tissue. The assay was done in the same manner as above, with the following notable exceptions: the final well concentration of myofibrils was 1.0 mg/mL and KCl was omitted from the recipe.
Compounds of Table 1 to 3 were tested, and results of the assays appear in Tables 5a-5c herein. A=IC50 is less than or equal to 10 μM; B=IC50 is greater than 10 μM and less than 100 μM; C=IC50 is greater than 100 μM; and […].

[2] = target: skeletal myofibrils (myosin ATPase); test: Skeletal Myofibril ATPase Assay; format: biochemical; conditions: Table 4A
Method: FIG. 7 depicts the buffer preparation procedures of Buffer A and Buffer B for the skeletal myofibril ATPase assay described in Example 12. Buffers were stored on ice until use.
Example 12: Skeletal Myofibril ATPase Assay
as §1
Materials: The following stock solutions and reagents were used in the Skeletal Myofibril ATPase Assay:
Stock Solutions of pCa buffer. Combine PIPES, CaCl2, and EGTA solutions with 70 mL of water. Adjust pH to 7.0 and bring final volume to 100 mL.
Skeletal Myofibril ATPase Assay Procedure: BSA, ATP, NADH, PEP, and DTT solutions were thawed at room temperature, then transferred to ice. Pellet-frozen myofibrils were transferred with approximately twice the required volume into a sufficiently large tube and capped. Myofibrils were thawed by rolling in a water bath for approximately 15 min at room temperature and cooled on ice. Buffers A and B were prepared by adjusting volumes as necessary for required number of wells and stored on ice. 0.5 μL of the compounds to be assayed were added into wells. 25 μL of Buffer A was dispensed into the wells, followed by 25 μL of Buffer B. The wells were measured for absorbance at 340 nm, using a kinetic protocol in which the wells are read every 1.5-2 min for 45 min. The slope of the data was approximated by subtracting the minimum absorbance value from the maximum value for each well. This was accomplished either in the SoftMax Pro software or in a spreadsheet program such as Excel. Using GraphPad Prism 8.0, the data was normalized by assigning a value of 100% to the 1% DMSO vehicle wells. Typically, a normalized 0% value was simply assigned to a (Max−Min) value of 0. The normalized data was fit to a Four Parameter Logistic sigmoidal equation, constraining the bottom to be 0 or greater. Compounds of Table 1, 2, and 3 were tested and results of the assay appear in Tables 4a-4c. A=IC50 is less than or equal to 10 μM; B=IC50 is greater than 10 μM and less than 100 μM; C=IC50 is greater than 100 μM.

T1 sequence (P12883 whole entry): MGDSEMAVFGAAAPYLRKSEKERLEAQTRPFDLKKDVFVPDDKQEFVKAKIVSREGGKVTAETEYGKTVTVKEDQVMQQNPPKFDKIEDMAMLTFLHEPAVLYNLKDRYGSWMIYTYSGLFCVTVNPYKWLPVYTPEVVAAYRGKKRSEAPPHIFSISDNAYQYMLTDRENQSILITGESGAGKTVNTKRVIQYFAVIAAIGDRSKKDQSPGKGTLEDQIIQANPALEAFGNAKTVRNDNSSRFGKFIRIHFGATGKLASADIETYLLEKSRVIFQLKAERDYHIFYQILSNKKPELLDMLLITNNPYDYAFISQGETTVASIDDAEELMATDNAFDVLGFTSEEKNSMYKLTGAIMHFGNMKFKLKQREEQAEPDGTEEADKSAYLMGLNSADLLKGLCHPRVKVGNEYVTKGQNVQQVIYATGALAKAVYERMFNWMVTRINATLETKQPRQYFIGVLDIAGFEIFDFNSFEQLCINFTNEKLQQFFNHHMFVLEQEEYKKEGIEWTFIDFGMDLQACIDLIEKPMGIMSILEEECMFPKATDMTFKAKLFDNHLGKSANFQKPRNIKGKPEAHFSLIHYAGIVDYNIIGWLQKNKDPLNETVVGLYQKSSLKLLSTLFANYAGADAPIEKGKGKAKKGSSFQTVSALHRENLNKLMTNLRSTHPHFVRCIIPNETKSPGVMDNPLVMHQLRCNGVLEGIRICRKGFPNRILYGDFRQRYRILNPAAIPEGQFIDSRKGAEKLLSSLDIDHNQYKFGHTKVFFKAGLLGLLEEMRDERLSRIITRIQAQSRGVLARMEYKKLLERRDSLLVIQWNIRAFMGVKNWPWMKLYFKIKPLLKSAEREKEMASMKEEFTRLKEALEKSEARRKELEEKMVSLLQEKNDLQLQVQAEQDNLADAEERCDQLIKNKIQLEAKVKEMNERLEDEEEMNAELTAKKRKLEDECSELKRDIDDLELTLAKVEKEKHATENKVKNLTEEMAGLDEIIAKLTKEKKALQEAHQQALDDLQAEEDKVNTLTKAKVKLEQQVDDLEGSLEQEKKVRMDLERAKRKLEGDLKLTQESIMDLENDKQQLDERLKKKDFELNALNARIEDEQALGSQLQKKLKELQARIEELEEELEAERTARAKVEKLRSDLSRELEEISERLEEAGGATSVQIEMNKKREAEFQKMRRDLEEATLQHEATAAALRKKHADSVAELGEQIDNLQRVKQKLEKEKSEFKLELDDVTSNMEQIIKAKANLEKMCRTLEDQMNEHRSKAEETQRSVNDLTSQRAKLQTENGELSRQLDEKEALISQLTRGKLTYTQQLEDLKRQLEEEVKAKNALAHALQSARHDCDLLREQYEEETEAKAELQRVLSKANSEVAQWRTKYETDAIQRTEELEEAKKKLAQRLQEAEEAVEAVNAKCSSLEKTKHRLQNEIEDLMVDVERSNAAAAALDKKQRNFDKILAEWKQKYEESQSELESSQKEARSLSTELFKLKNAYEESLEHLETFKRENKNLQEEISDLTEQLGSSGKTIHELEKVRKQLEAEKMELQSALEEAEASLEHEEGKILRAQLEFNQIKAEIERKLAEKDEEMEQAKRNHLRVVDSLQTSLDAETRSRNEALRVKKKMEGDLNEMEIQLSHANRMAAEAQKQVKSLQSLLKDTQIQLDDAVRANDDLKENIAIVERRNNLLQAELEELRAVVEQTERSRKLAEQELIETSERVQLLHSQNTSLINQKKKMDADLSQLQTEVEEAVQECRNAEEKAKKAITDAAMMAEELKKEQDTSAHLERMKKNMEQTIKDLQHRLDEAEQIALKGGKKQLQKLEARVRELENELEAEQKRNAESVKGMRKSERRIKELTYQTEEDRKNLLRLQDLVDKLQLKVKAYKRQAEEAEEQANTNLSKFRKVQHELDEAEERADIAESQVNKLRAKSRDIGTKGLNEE
T1 sequence (P08590 whole entry partner): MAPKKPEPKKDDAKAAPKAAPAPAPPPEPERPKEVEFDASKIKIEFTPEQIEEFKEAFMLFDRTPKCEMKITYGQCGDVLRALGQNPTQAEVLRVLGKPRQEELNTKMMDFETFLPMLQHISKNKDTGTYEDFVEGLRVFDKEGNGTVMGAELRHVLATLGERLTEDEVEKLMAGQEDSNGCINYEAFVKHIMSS
T1 sequence (P10916 whole entry partner): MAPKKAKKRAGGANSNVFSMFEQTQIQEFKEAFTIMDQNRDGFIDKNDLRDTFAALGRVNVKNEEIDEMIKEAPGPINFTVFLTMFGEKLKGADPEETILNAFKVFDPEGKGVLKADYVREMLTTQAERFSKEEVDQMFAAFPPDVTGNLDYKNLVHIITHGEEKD

Structure (SMILES)	pIC50 [1]	pIC50 [2]
CCNC(=O)Cn1nc(-c2ccc(Oc3ccc(F)cc3)nc2)ccc1=O [Compound I-21, N-ethyl-2-(3-(6-(4-fluorophenoxy)pyridin-3-yl)-6-oxopyridazin-1(6H)-yl)acetamide]	< 4.00	4.00 to 5.00
CCNC(=O)Cn1nc(-c2ccc(OCC3COC3)nc2)ccc1=O [Compound I-22, N-ethyl-2-(3-(6-(oxetan-3-ylmethoxy)pyridin-3-yl)-6-oxopyridazin-1(6H)-yl)acetamide]	< 4.00	4.00 to 5.00
CCNC(=O)Cn1nc(-c2ccc(OCCCN(C)C)nc2)ccc1=O [Compound I-28, 2-(3-(6-(3-(dimethylamino)propoxy)pyridin-3-yl)-6-oxopyridazin-1(6H)-yl)-N-ethylacetamide]	< 4.00	< 4.00
C[C@H](NC(=O)Cn1nc(-c2ccc(OC(F)F)nc2)ccc1=O)c1ccnn1C [Compound I-29, (S)-2-(3-(6-(difluoromethoxy)pyridin-3-yl)-6-oxopyridazin-1(6H)-yl)-N-(1-(1-methyl-1H-pyrazol-5-yl)ethyl)acetamide]	< 4.00	< 4.00
Cn1nccc1CNC(=O)Cn1nc(-c2ccc(OC(F)F)nc2)ccc1=O [Compound I-30, 2-(3-(6-(difluoromethoxy)pyridin-3-yl)-6-oxopyridazin-1(6H)-yl)-N-((1-methyl-1H-pyrazol-5-yl)methyl)acetamide]	< 4.00	< 4.00
CCNC(=O)Cn1nc(-c2ccc(N3CC4(C3)CS(=O)(=O)C4)nc2)ccc1=O [Compound I-32, 2-(3-(6-(2,2-dioxido-2-thia-6-azaspiro[3.3]heptan-6-yl)pyridin-3-yl)-6-oxopyridazin-1(6H)-yl)-N-ethylacetamide]	< 4.00	< 4.00
CC(C)(C#N)NC(=O)Cn1nc(-c2ccc(OC(F)F)nc2)ccc1=O [Compound I-35, N-(2-cyanopropan-2-yl)-2-(3-(6-(difluoromethoxy)pyridin-3-yl)-6-oxopyridazin-1(6H)-yl)acetamide]	< 4.00	4.00 to 5.00
CCNC(=O)Cn1nc(-c2ccc(CC(F)(F)F)nc2)ccc1=O [Compound I-37, N-ethyl-2-(6-oxo-3-(6-(2,2,2-trifluoroethyl)pyridin-3-yl)pyridazin-1(6H)-yl)acetamide]	< 4.00	4.00 to 5.00
CCNC(=O)Cn1nc(-c2ccc(NC3CCOCC3)nc2)ccc1=O [Compound I-45, N-ethyl-2-(6-oxo-3-(6-((tetrahydro-2H-pyran-4-pyran-4-yl)amino)pyridin-3-yl)pyridazin-1(6H)-yl)acetamide]	< 4.00	< 4.00
O=C(Cn1nc(-c2cnc(NC34CC(C3)C4)nc2)ccc1=O)NC1CCC1 [Compound I-50, 2-(3-(2-(bicyclo[1.1.1]pentan-1-ylamino)pyrimidin-5-yl)-6-oxopyridazin-1(6H)-yl)-N-cyclobutyl-acetamide]	< 4.00	> 5.00
O=C(Cn1nc(-c2ccc(NC3CCC3)nc2)ccc1=O)NC1CCC1 [Compound I-52, N-cyclobutyl-2-(3-(6-(cyclobutylamino)pyridin-3-yl)-6-oxopyridazin-1(6H)-yl)acetamide]	< 4.00	> 5.00
O=C(Cn1nc(-c2ccc(NC34CC(C3)C4)nc2)ccc1=O)NC1CCC1 [Compound I-54, 2-(3-(6-(bicyclo[1.1.1]pentan-1-ylamino)pyridin-3-yl)-6-oxopyridazin-1(6H)-yl)-N-cyclobutylacetamide]	< 4.00	> 5.00
CCNC(=O)Cn1nc(-c2ccc(N3CC(OC(F)F)C3)nc2)ccc1=O [Compound I-55, 2-(3-(6-(3-(difluoromethoxy)azetidin-1-yl)pyridin-3-yl)-6-oxopyridazin-1(6H)-yl)-N-ethylacetamide]	< 4.00	4.00 to 5.00
O=C(Cn1nc(-c2ccc(OCC(F)(F)F)nc2)ccc1=O)NC1CCC1 [Compound I-56, N-cyclobutyl-2-(6-oxo-3-(6-(2,2,2-trifluoroethoxy)pyridin-3-yl)pyridazin-1(6H)-yl)acetamide]	4.00 to 5.00	> 5.00
CCNC(=O)Cn1nc(-c2cnc(NC34CC(F)(C3)C4)nc2)ccc1=O [Compound I-57, N-ethyl-2-(3-(2-((3-fluorobicyclo[1.1.1]pentan-1-yl)amino)pyrimidin-5-yl)-6-oxopyridazin-1(6H)-yl)acetamide]	< 4.00	> 5.00

Further lines, results first:

pIC50 [1]	pIC50 [2]	Structure (SMILES)
< 4.00	4.00 to 5.00	CCNC(=O)Cn1nc(-c2ccc(N3CCC34COC4)nc2)ccc1=O [Compound I-19, 2-(3-(6-(6-oxa-1-azaspiro[3.3]heptan-1-yl)pyridin-3-yl)-6-oxopyridazin-1(6H)-yl)-N-ethylacetamide]
< 4.00	4.00 to 5.00	CCC(C)(C)NC(=O)Cn1nc(-c2ccc(OC(F)F)nc2)ccc1=O [Compound I-20, 2-(3-(6-(difluoromethoxy)pyridin-3-yl)-6-oxopyridazin-1(6H)-yl)-N-(tert-pentyl)acetamide]
< 4.00	4.00 to 5.00	CCNC(=O)Cn1nc(-c2ccc(OCC3(F)COC3)nc2)ccc1=O [Compound I-23, N-ethyl-2-(3-(6-((3-fluorooxetan-3-yl)methoxy)pyridin-3-yl)-6-oxopyridazin-1(6H)-yl)acetamide]
< 4.00	4.00 to 5.00	CCNC(=O)Cn1nc(-c2ccc(OCC3(C)COC3)nc2)ccc1=O [Compound I-24, N-ethyl-2-(3-(6-((3-methyloxetan-3-yl)methoxy)pyridin-3-yl)-6-oxopyridazin-1(6H)-yl)acetamide]
< 4.00	< 4.00	CCNC(=O)Cn1nc(-c2ccc(OC3COC3)nc2)ccc1=O [Compound I-25, N-ethyl-2-(3-(6-(oxetan-3-yloxy)pyridin-3-yl)-6-oxopyridazin-1(6H)-yl)acetamide]
< 4.00	< 4.00	CCNC(=O)Cn1nc(-c2ccc(OCCN(C)C)nc2)ccc1=O [Compound I-26, 2-(3-(6-(2-(dimethylamino)ethoxy)pyridin-3-yl)-6-oxopyridazin-1(6H)-yl)-N-ethylacetamide]
< 4.00	< 4.00	CCNC(=O)Cn1nc(-c2ccc(OC(C)C)nc2)ccc1=O [Compound I-27, N-ethyl-2-(3-(6-isopropoxypyridin-3-yl)-6-oxopyridazin-1(6H)-yl)acetamide]
< 4.00	< 4.00	CCNC(=O)Cn1nc(-c2ccc(N3CC4(COC4)C3)nc2)ccc1=O [Compound I-31, 2-(3-(6-(2-oxa-6-azaspiro[3.3]heptan-6-yl)pyridin-3-yl)-6-oxopyridazin-1(6H)-yl)-N-ethylacetamide]
< 4.00	< 4.00	O=C(Cn1nc(-c2ccc(OC(F)F)nc2)ccc1=O)NC1CC(F)(F)C1 [Compound I-33]
< 4.00	> 5.00	CCNC(=O)Cn1nc(-c2ccc(NC34CC(C3)C4)nc2)ccc1=O [Compound I-36, 2-(3-(6-(bicyclo[1.1.1]pentan-1-ylamino)pyridin-3-yl)-6-oxopyridazin-1(6H)-yl)-N-ethylacetamide]
< 4.00	> 5.00	CCNC(=O)Cn1nc(-c2ccc(NC3COC3)nc2)ccc1=O [Compound I-44, N-ethyl-2-(3-(6-(oxetan-3-ylamino)pyridin-3-yl)-6-oxopyridazin-1(6H)-yl)acetamide]
< 4.00	> 5.00	O=C(Cn1nc(-c2cnc(OCC(F)(F)F)nc2)ccc1=O)NC12CC(C1)C2 [Compound I-51, N-(bicyclo[1.1.1]pentan-1-yl)-2-(6-oxo-3-(2-(2,2,2-trifluoroethoxy)pyrimidin-5-yl)pyridazin-1(6H)-yl)acetamide]
< 4.00	> 5.00	CCNC(=O)Cn1nc(-c2ccc(NC(C)(C)C)nc2)ccc1=O [Compound I-53, 2-(3-(6-(tert-butylamino)pyridin-3-yl)-6-oxopyridazin-1(6H)-yl)-N-ethylacetamide]
